“Also recorded” adds a separate entry of the source. Non-standard residues stand in square brackets, D forms with d. Residues, ends and D or L forms follow the SMILES beside them. *: point of attachment. Decanoyl(3,6,9-trioxa) = COCCOCCOCC(=O)*; NBD = O=[N+]([O-])c1ccc(*)c2nonc12; dNle = CCCC[C@@H](N)C(=O)O; Nle = CCCC[C@H](N)C(=O)O; AEEA = NCCOCCOCC(=O)O; Ahx = NCCCCCC(=O)O

The subject of data set [1] is methicillin-sensitive Staphylococcus aureus. Briefly: Confocal labelling of MSSA with quantified fluorescence. Type of data set: cell-based. Particulars: MSSA, 10 μM, fluorescence normalized to UBI-3, mean ± SEM, n ≥ 3. As to the method: Fig. 6 Confocal Images of compounds UBI-3 to 9 with quantified fluorescence. Panels show methicillin-sensitive Staphylococcus aureus incubated with UBI-3 to 9 (all 10 μM) with quantification of bacterial fluorescence normalized to UBI-3 (bars represent mean (±SEM), n ≥ 3, ns = not significant, *** = p < 0.001, * = p < 0.05, scale bar = 10 μm).
Fig. 8 Confocal images and quantification of cyclic variants when compared to UBI-3. Panels show methicillin-sensitive Staphylococcus aureus incubated with cyclic UBI compounds (all 10 μM) with quantification of bacterial fluorescence normalized to UBI-3 (bars represent mean (±SEM), n ≥ 3, ns = not significant, ** = p < 0.01, scale bar = 10 μm).
Bacterial Culture and Labelling: Bacteria used were K. pneumoniae (ATCC BAA1706) ATCC, E. coli (ATCC 25922) ATCC, A. baumannii (J3433) Clinical Isolate, P. aeruginosa (J3284) Clinical Isolate, Methicillin Resistant S. aureus (MRSA) (ATCC25923) ATCC and Methicillin Sensitive S. aureus (MSSA) (ATCC 252) ATCC. All bacteria were grown on Lysogeny broth (LB) agar and from a single bacterial colony placed into 10ml of LB and incubated at 37°C for 16 hours in an orbital shaker.
Cultures were centrifuged at 4000rpm for 5 minutes and the pellet resuspended in 1ml phosphate buffered saline (PBS, Life Technologies). Following three further washes in PBS the cultures were reconstituted to 1 OD595 nm. Bacteria were counterstained with 5µM Syto 82 orange fluorescent nucleic acid stain (Invitrogen, CA, USA) in a shaking heat block at 37 °C for 20 minutes. For FCFM bacteria were stained with 1µM Calcein AM (Sigma, MO, USA) for 30 minutes at 37 °C. Counterstained bacteria were washed in PBS to remove excess dye. […]
Confocal Analysis and Fluorescence Quantification: 8-Well Lab-Tek II Confocal Chambers (VWR, PA, USA) were coated in fibronectin (for neutrophil experiments) or poly-d-lysine (for bacteria) at 37 °C for 20 minutes, then washed in PBS prior to bacterial innoculation. For co-culture assays, neutrophils were seeded on fibronectin coated wells at 1 x 10^5 neutrophils per well for 20 minutes and non-adherent neutrophils aspirated. Bacteria were added to each chamber to a final concentration of 0.5 OD595 nm with the desired final concentration of Smartprobe. A laser-scanning confocal imaging system (LSM510; Carl Zeiss, Jena, Germany), incorporating an upright Axioskop FS2 microscope (63× objective) was used for image acquisition and processing. Exposure to 488 nm light was limited to 5% of the maximum laser power in order to minimize toxicity. ‘Green’ fluorescence (for FAM and NBD) was excited with a dedicated 488 nm line and emitted light detected with meta detector (500-530 nM).
Syto nuclear and dyes were excited with a dedicated 543 nm line, and emitted light detected with meta detector (570-610 nM). Fields of view were chosen based on the counterstain and at least three fields of view were recorded for each condition. For affinity assays, following initial imaging, the fluid was aspirated and two gentle washes with PBS were performed. The chamber was re-imaged on confocal.
Analysis was with ImageJ (version 1.46r, National Institutes of Health, USA); the Syto channel was automatically thresholded (MaxEntropy, with a set threshold 0-47) and an ROI generated from this. The […]
mean fluorescence intensity on the probe channel within this ROI was quantified. Data presented represents the mean of three experiments, from each of which three separate fields of view were assessed. All experiments were performed at least three times unless otherwise stated and results expressed as mean ± SEM. Data was analysed by unpaired t-test and significance was determined as p<0.05 (GraphPad Prism version 5.01 for Windows, GraphPad Software, San Diego California USA).
Ex vivo Human Lung and FCFM Procedure: Human lung samples were obtained from patients undergoing surgical resection for lung carcinoma. All images were obtained on sections of normal lung […]

A short description of data set [2]: Stability in ARDS bronchoalveolar lavage fluid (MALDI-TOF MS). Type of data set: in vitro ADME, human. Particulars: human ARDS BALF pooled from three patients vs PBS, 5 and 30 min, MALDI-TOF MS. An excerpt:
To determine the ability of UBI-3 to image bacteria in the continued presence of a complex inflammatory environment, bacteria were labelled with UBI-3 in the presence of broncho-alveolar lavage fluid (BALF) retrieved from ventilated ICU patients with Acute Respiratory Distress Syndrome (ARDS). ARDS BALF was utilised as ARDS is a severe life threatening pulmonary syndrome, characterized by a massive proteolytic and oxidative inflammatory environment within the distal alveolar region.[14] […] To design out susceptible amino acid cleavage points, a number of modifications were made (Table 1) and the functional consequences assessed. The chemical approaches pursued to improve resistance to degradation included replacing amino acids at the cleavage positions with non-natural amino acids such as N-methyl or D-amino acids,[15] and cyclisation of the peptide,[16] which could have the added benefit of enhancing affinity towards bacterial membrane.[17]
The Arg–Arg bonds were identified as the prominent position of degradation (Fig. 5) and Compounds UBI-4–9 (Table 1) were synthesised with a variety of substitutions around the degradation sites. The susceptible peptide bonds at P1–P2 and P7–P8 were blocked using N-MeArg (UBI-4), and to further mask these positions, a long polyethylene glycol (PEG) chain and/or a D-amino acid were positioned at the carboxylic and/or amino termini (UBI-5–7).
We hypothesized that cyclisation of the sequence would allow for greater stability and also improve bacterial affinity and therefore cyclic variants of UBI-3 were synthesized (UBI-10 and UBI-11), which were both found to be stable in BALF for 5 minutes (Fig. 7 and S3 ESI ^†). […] However, these studies also highlighted the degradation of UBI-10 at 10 minutes, guiding the temporal constraints of Smartprobe delivery and optical imaging.
Fig. 7 UBI-10 remains stable in ARDS BALF at 5 minutes. (A) Structure of UBI-10 with breakdown products in ARDS BALF. […] TEXT PRINTED IN THE PICTURE: UBI-10: Molecular Weight: 2118.41 | Fragment A: Molecular Weight: 1923.18 | Fragment B: Molecular Weight: 1980.23 DOUBTS OF THE COPYIST ABOUT THIS PICTURE: UBI-10, Molecular Weight: very small print, 2118.41 is the best reading; the digits 8 and 4 are uncertain / Fragment A, Molecular Weight: very small print, 1923.18 is the best reading; the digits 9, 3 and 8 are uncertain / Fragment B, Molecular Weight: very small print, 1980.23 is the best reading; the digits 9, 8 and 3 are uncertain […]
Supplementary Information
A Labelled-Ubiquicidin Antimicrobial Peptide for Immediate In Situ Optical Detection of Live Bacteria in Human Alveolar Lung Tissue
Ahsan R Akram, Nicolaos Avlonitis, Annamaria Lilienkampf, Ana M Perez-Lopez, Neil McDonald, Sunay V Chankeshwara, Emma Scholefield, Christopher Haslett, Mark Bradley & Kevin Dhaliwal.
Figure S1: MALDI-TOF MS spectra for a stability study of UBI-3 in PBS and in ARDS BALF […]
Figure S2. MALDI-TOF MS spectra of modified analogues UBI-4 to UBI-9 in Phosphate Buffered Saline and ARDS BALF over a period of 5 and 30min.
Figure S3: MALDI-TOF MS spectra of UBI-11 in Phosphate Buffered Saline vs ARDS BALF […]
Figure S4. Quantified fluorescence of confocal microscopy images of the compounds UBI-3, UBI-5 and UBI-10 on three bacteria and fluorescence retention following a PBS wash.
Figure S5: Fibered confocal fluorescence microscopy imaging of human lung and Calcein AM stained Methicillin sensitive S. aureus.
Experimental Details including Tables M1-4, Figure M1 and HPLC Chromatograms.
(also on this page, place not known: Electronic Supplementary Material (ESI) for Chemical Science. This journal is © The Royal Society of Chemistry 2015)
(1 picture or pasted object on this page, not shown here) […]
BALF Retrieval: Bronchoalveolar lavage was performed in the Intensive Care Unit (ICU), as previously described. S5 Pooled samples from three patients were used for stability assays. […]
Exposure to 488 nm light was limited to 5% […]

Data set [3] is described as follows: broncho-alveolar lavage fluid (BALF) retrieved from ventilated ICU patients with Acute Respiratory Distress Syndrome (ARDS); pooled samples from three patients. The conditions noted are these: human, up to 30min.

For `CCCC[C@H](NC(=O)[C@H](CCCNC(=N)N)NC(=O)[C@H](CCCNC(=N)N)NC(=O)[C@H](CCCCN)NC(=O)[C@H](C)NC(=O)[C@H](CCCNC(=N)N)NC(=O)CNC(=O)[C@@H](NC(=O)[C@H](CCCCNc1ccc([N+](=O)[O-])c2nonc12)NC(=O)COCCOCCOC)[C@@H](C)O)C(=O)N[C@@H](CCC(N)=O)C(=O)N[C@@H](Cc1ccc(O)cc1)C(=O)N[C@@H](CC(N)=O)C(=O)N[C@@H](CCCNC(=N)N)C(=O)N[C@@H](CCCNC(=N)N)C(=O)NCCOCCOCC(=O)NCCOCCOCC(N)=O` [UBI-6] ({Decanoyl(3,6,9-trioxa)}-K(NBD)TGRAKRR[Nle]QYNRR[AEEA][AEEA]-NH2), in data set [1], the “bacterial labelling (fluorescence compared with UBI-3)” value is listed as “loss of labelling on bacteria; also recorded: loss of labelling efficacy”. Take `CCCC[C@H](NC(=O)[C@H](CCCNC(=N)N)NC(=O)[C@H](CCCNC(=N)N)NC(=O)[C@H](CCCCN)NC(=O)[C@H](C)NC(=O)[C@H](CCCNC(=N)N)NC(=O)CNC(=O)[C@@H](NC(=O)CCCCCNc1ccc([N+](=O)[O-])c2nonc12)[C@@H](C)O)C(=O)N[C@@H](CCC(N)=O)C(=O)N[C@@H](Cc1ccc(O)cc1)C(=O)N[C@@H](CC(N)=O)C(=O)N[C@@H](CCCNC(=N)N)C(=O)N[C@@H](CCCNC(=N)N)C(=O)NCCOCCOCC(=O)NCCOCCOCC(N)=O` [UBI-7] ({NBD-Ahx}-TGRAKRR[Nle]QYNRR[AEEA][AEEA]-NH2): the “stability in ARDS BALF” value in data set [2] is “did not improve stability in ARDS BALF; also recorded: Unstable in ARDS BALF at 30 minutes”. For the same compound, the “bacterial labelling (fluorescence compared with UBI-3)” value in data set [1] is listed as “loss of bacterial labelling; also recorded: loss of labelling efficacy”.

As to `CCCC[C@@H](NC(=O)[C@@H](CCCNC(=N)N)NC(=O)[C@@H](CCCNC(=N)N)NC(=O)[C@@H](CCCCN)NC(=O)[C@@H](C)NC(=O)[C@@H](CCCNC(=N)N)NC(=O)CNC(=O)[C@H](NC(=O)COCCOCCNc1ccc([N+](=O)[O-])c2nonc12)[C@H](C)O)C(=O)N[C@H](CCC(N)=O)C(=O)N[C@H](Cc1ccc(O)cc1)C(=O)N[C@H](CC(N)=O)C(=O)N[C@H](CCCNC(=N)N)C(=O)N[C@H](CCCNC(=N)N)C(=O)O` [UBI-8] ({NBD-AEEA}-[dT]G[dR][dA][dK][dR][dR][dNle][dQ][dY][dN][dR][dR]-OH), in data set [1], the “bacterial labelling (fluorescence compared with UBI-3)” value is reported as “loss of labelling on bacteria; also recorded: loss of labelling efficacy”.

Regarding `CCCC[C@@H](NC(=O)[C@@H](CCC(N)=O)NC(=O)[C@@H](Cc1ccc(O)cc1)NC(=O)[C@@H](CC(N)=O)NC(=O)[C@@H](CCCNC(=N)N)NC(=O)[C@@H](CCCNC(=N)N)NC(=O)COCCOCCOC)C(=O)N[C@H](CCCNC(=N)N)C(=O)N[C@H](CCCNC(=N)N)C(=O)N[C@H](CCCCN)C(=O)N[C@H](C)C(=O)N[C@H](CCCNC(=N)N)C(=O)NCC(=O)N[C@@H](C(=O)N[C@@H](CCCCNc1ccc([N+](=O)[O-])c2nonc12)C(=O)O)[C@H](C)O` [UBI-9] ({Decanoyl(3,6,9-trioxa)}-[dR][dR][dN][dY][dQ][dNle][dR][dR][dK][dA][dR]G[dT]K(NBD)-OH), in data set [1], the “bacterial labelling (fluorescence compared with UBI-3)” value is given as “loss of labelling on bacteria; also recorded: loss of labelling efficacy”. Take “MeO-PEG- D- Arg- D- Arg- D- Asn- D- Tyr- D- Gln- D- Nle- D- Arg- D- Arg- D- Lys- D- Ala- D- Arg-Gly- D- Thr-Lys(NBD)-OH”: the not cleaved result in data set [3] is “Stable in ARDS BALF”.

Turning to “NBD-Ahx-Thr-Gly-Arg-Ala-Lys-Arg-Arg-Nle-Gln-Tyr-Asn-Arg-Arg-NH2”, the cleaved bond result in data set [3] is given as “ArgP8-ArgP7, major, <5 min; also recorded: ArgP2-ArgP1, major, <5 min”. Consider “NBD-Ahx-Thr-Gly-Arg-Ala-Lys-Arg-MeArg-Nle-Gln-Tyr-Asn-Arg-Arg-D-Phe-D-Val-NH2”, for which the not cleaved entry in data set [3] was “Stable in ARDS BALF”.

For “NBD-Ahx-Thr-Gly-Arg-Ala-Lys-MeArg-MeArg-Nle-Gln-Tyr-Asn-MeArg-MeArg-NH2”, the not cleaved result in data set [3] is recorded as “Stable in ARDS BALF”.

For the compound “NBD-Ahx-cyclo[Lys-Thr-Gly-Arg-Ala-Lys-Arg-Arg-Nle-Gln-Tyr-Asn-Arg-Arg-Gly]”, the cleaved bond entry in data set [3] is “Thr-Gly, first_seen, 10min; also recorded: Arg-Arg, major, 20min”. As to “NBD-Ahx-cyclo[Lys-Thr-Gly-Arg-Ala-Lys-Arg-Arg-Nle-Gln-Tyr-Asn-Arg-MeArg-Gly]”, in data set [3], the not cleaved result is “stability in BALF for over 30 minutes”. As to “NBD-PEG-D-Thr-Gly-D-Arg-D-Ala-D-Lys-D-Arg-D-Arg-D-Nle-D-Gln-D-Tyr-D-Asn-D-Arg-D-Arg-OH”, the not cleaved entry in data set [3] was “Stable in ARDS BALF”.

These data come from article PMC5947527 (Chemical Science, 2015).
